Activity calls are given as the source filed them.
Columns and labels:
[1] = NIH-3T3 fibroblast cytotoxicity, dose response, cytotoxicity control, cell-based, fluorescence, Alamar Blue, secondary assay (AID 2327); format: functional;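 note: NIH-3T3 mouse fibroblasts cultured with fluconazole at 8 µg/mL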
[2] = luciferase reporter signal suppression in cells – H4 neuroglioma cells, luminescence, dose response (AID 1990); format: functional, cell-based
[3] = alpha-synuclein stem-loop luciferase translation blockers – H4 neuroglioma cells, luminescence, confirmation (AID 1988); format: functional, cell-based
[4] = fluconazole-exposed Candida albicans growth modulators – fluorescence, retest, confirmation (AID 2467); format: functional, cell-based
Large T antigen = Large T antigen (Simian virus 40, UniProt P03070); format: functional, Betapolyomavirus macacae;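 note: Confirmatory-stage PubChem screen for compounds that inhibit SV40 T antigen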
Large T antigen, sequence (P03070 whole entry): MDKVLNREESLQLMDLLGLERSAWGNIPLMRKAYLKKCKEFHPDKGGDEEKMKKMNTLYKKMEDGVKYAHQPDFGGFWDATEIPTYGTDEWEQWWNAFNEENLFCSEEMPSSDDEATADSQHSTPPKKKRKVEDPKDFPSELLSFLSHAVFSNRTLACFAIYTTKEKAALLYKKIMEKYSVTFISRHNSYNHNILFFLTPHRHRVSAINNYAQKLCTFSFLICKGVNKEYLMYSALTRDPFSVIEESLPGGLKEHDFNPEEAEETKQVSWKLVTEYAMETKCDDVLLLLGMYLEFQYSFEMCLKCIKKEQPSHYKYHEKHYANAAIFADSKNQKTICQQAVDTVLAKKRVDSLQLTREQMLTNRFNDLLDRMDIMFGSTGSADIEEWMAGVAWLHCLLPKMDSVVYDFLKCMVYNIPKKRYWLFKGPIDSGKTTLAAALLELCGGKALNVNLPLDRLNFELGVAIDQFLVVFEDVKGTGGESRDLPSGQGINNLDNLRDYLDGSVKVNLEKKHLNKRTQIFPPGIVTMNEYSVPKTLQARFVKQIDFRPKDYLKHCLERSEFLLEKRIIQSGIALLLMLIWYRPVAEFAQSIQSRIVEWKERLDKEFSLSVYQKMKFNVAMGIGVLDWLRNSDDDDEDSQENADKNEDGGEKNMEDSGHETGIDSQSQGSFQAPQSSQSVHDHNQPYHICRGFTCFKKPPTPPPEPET

[5] = target: E3 ubiquitin-protein ligase XIAP (Homo sapiens, UniProt P98170); test: Counter Screen using XIAP-Bir3 for Chemical Antagonists of Bir1/2 domains of IAP-family anti-apoptotic proteins. [Related pubchem assays (depositor defined):AID1018, AID1449, AID1514, AID1638, AID1749, AID1750, AID488957, AID488963]
[6] = target: Beta-adrenergic receptor kinase 1 (Homo sapiens, UniProt P25098); test: aptamer displacement from bead-bound GRK2 – biochemical, cherry pick 1, bead flow cytometry, dose response (AID 504500)
[7] = test system: Streptococcus sp. 'group A'; test: Streptococcus pyogenes SK(-)GAS viability under kanamycin – luminescence, BacTiterGlo, confirmation, counter-screen for streptokinase expression inhibitor project, dose response (AID 1900); format: functional, organism-based
BJ [8] = test: BJ-TERT fibroblast viability loss – cell-based, RAS-independent, luminescence, dose response (AID 1933); format: functional; details: Homo sapiens
Beta-galactosidase = Beta-galactosidase (Escherichia coli, UniProt Q8VNN2); test: PubChem AID 485352; format: functional
Beta-galactosidase, sequence (Q8VNN2 whole entry): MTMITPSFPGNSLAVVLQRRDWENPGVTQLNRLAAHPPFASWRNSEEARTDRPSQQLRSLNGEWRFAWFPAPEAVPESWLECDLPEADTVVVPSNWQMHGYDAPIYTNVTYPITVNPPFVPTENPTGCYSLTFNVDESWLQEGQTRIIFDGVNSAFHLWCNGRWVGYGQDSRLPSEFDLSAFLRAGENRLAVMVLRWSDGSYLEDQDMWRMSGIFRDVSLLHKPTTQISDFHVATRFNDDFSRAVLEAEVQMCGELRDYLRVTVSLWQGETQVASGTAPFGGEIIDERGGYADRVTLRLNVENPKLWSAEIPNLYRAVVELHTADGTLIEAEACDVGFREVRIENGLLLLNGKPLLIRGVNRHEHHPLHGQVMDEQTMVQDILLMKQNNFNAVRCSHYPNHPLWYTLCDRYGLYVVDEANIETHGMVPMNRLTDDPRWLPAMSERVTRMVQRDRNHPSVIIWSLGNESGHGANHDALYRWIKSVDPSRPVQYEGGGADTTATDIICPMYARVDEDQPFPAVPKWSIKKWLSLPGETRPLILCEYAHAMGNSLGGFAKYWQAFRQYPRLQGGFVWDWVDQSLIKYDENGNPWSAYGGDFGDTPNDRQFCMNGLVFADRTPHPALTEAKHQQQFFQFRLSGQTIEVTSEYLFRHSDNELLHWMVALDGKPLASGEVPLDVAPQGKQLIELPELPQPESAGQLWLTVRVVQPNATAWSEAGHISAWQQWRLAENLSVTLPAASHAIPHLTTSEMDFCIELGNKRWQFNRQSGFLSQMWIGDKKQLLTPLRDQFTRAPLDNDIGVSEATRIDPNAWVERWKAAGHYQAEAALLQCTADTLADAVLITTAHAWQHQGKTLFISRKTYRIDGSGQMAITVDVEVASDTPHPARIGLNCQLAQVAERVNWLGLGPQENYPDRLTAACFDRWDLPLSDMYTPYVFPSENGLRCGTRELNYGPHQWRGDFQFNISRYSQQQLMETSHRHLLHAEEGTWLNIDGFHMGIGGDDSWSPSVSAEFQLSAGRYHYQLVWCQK

Streptokinase A = target: T1, Streptokinase A (Streptococcus pyogenes serotype M1, UniProt P10520); test: viability-normalized secreted streptokinase activity reduction – plasminogen activation absorbance, OD405, dose response (AID 1914); format: functional, Streptococcus pyogenes M1 GAS;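 note: secreted streptokinase activity via plasminogen activation per viability signal from cell pellet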
T1 sequence (P10520 whole entry): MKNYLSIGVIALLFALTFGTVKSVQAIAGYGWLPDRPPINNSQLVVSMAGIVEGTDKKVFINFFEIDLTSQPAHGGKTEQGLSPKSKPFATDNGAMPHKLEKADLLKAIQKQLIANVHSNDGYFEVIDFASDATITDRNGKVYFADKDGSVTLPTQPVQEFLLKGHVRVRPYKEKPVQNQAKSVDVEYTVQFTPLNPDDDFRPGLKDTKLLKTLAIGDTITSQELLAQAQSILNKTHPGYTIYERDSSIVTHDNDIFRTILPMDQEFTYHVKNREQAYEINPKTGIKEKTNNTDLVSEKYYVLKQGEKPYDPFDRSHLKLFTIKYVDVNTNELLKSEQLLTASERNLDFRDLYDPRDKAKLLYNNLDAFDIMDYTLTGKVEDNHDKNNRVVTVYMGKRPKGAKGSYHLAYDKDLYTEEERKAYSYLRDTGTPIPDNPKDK

BJ [9] = test: cells; format: functional, cell-based; details: Homo sapiens
[10] = Luminescence-based dose response cell-based high throughput screening assay for cytotoxic compounds using the IEC-6 intestinal epithelial cell line. [Related pubchem assays: 1858 (Summary AID.), 1825 (Counterscreen.), 1907 (Confirmation screen.)]; format: functional
[11] = target: T2, Type-1 angiotensin II receptor (Homo sapiens, UniProt P30556); test: antagonism of angiotensin II type 1 receptor – cell-based, uHTS hits, selectivity assay for APJ receptor antagonist project, dose response (AID 463214); format: functional;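 note: antagonist potency against angiotensin II stimulated AT1 response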
T2 sequence (P30556 whole entry): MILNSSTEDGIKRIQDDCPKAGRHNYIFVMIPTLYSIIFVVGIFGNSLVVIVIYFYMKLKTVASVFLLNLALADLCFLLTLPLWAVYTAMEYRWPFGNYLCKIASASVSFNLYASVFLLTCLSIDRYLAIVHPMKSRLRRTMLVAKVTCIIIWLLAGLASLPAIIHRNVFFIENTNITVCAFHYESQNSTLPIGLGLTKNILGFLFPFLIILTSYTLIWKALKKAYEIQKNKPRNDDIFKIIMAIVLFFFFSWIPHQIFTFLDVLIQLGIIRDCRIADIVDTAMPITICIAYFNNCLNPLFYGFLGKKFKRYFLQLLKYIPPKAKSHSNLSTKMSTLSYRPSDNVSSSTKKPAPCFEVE

BJ [12] = test: BJ-TERT-LT-ST fibroblast viability loss – cell-based, RAS-independent, luminescence, dose response (AID 1935); format: functional; details: Homo sapiens;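 note: BJ fibroblasts immortalized with TERT plus LT and ST oncogenes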
[13] = DRD fibroblast viability loss – cell-based, non-viral oncogenic, luminescence, dose response (AID 1934); format: functional; details: Homo sapiens
Streptococcus = test: GAS UMAA2166 growth inhibition – luminescence, BacTiterGlo, counter-screen for streptokinase expression inhibitor project, dose response (AID 1915); format: functional, organism-based;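 note: potency for reduction of bacterial viability or growth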
[14] = HEK-293T viability loss after treatment – luminescence, T-cell screen hits, cytotoxicity control for TCR NF-kB inhibitor project, dose response (AID 489026); format: functional, cell-based;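 note: cells exposed to compound about 14 hours before the viability readout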
HEK293 [15] = test: HEK293T cell viability loss, resazurin readout – resazurin fluorescence, cytotoxicity control for NF-kB activator project, SAR follow-up (AID 493251); format: functional, cell-based; details: Homo sapiens
Jurkat = test: SAR Analysis of small molecule inhibitors of both B-cell and T-cell specific antigen receptor-induced NF-kB activation in a Jurkat cell line using a luminescence assay. [Related pubchem assays (depositor defined):AID435003, AID435022, AID465, AID489029]; format: functional, cell-based; details: Homo sapiens
BJ [16] = test: growth inhibition of engineered Ras-driven BJ cells – cell-based, alamar blue fluorescence, cherrypicked samples, dose response (AID 2631); format: functional; details: Homo sapiens;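 note: confirmatory dose-response assay in RAS-dependent BJ fibroblasts engineered with TERT, LT and ST, with cytotoxicity read by fluorescence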
HEK293 [17] = test: SAR Analysis of small molecule inhibitors of both B-cell and T-cell specific antigen receptor-induced NF-kB activation in a HEK-293T cell line using a luminescence assay. [Related pubchem assays (depositor defined):AID435003, AID435022, AID465, AID489019, AID489029]; format: functional, cell-based; details: Homo sapiens
Paired box protein Pax-8 = Paired box protein Pax-8 (Homo sapiens, UniProt Q06710); test: PAX8 transcriptional activity inhibition in RMG-I – RMG-I cells, luciferase, cherry-pick, dose response (AID 687027); format: functional, cell-based;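 note: luciferase reporter driven by Pax8 target thyroperoxidase promoter measured by SteadyGlo luminescence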
[18] = inhibitors acting on PAX2 in cells – cell-based, plate reader, dry powder samples, selectivity assay for PAX8 inhibitor project, dose response (AID 743048); format: functional;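 note: HEK293 cells carrying a WT1 promoter luciferase reporter driven by expressed Pax2; potency is for inhibition of Pax2 driven reporter signal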
[19] = COV362 cell viability loss – plate reader, dry powder, SA12, cytotoxicity control for PAX8 inhibitor project, dose response (AID 743144); format: functional, cell-based
[20] = toxicity toward immortalized ovarian surface epithelium – cell-based, plate reader, dry powder samples, cytotoxicity control for PAX8 inhibitor project, dose response (AID 743045); format: functional
[21] = A2780 cell killing – plate reader, dry powder samples, cytotoxicity control, dose response (AID 743046); format: functional, cell-based
[22] = IGROV1 cell killing – plate reader, dry powder samples, PAX8 inhibitor project, dose response (AID 743043); format: functional, cell-based; details: IGROV-1
[23] = OVCAR4 cell viability loss – plate reader, dry powder, SA11, cytotoxicity control for PAX8 inhibitor project, dose response (AID 743150); format: functional, cell-based; details: OVCAR-4
[24] = COV434 cell viability loss – plate reader, dry powder, SA7, cytotoxicity control for PAX8 inhibitor project, dose response (AID 743145); format: functional, cell-based
[25] = OV-90 cell viability loss – plate reader, dry powder, SA8, PAX8 inhibitor project, dose response (AID 743149); format: functional, cell-based
[26] = general cell-killing toxicity readout – plate reader, dry powder samples, cytotoxicity control for PAX8 inhibitor project, dose response (AID 743021); format: functional, cell-based
[27] = PAX8-dependent cell viability loss – plate reader, dry powder, dose response (AID 743049); format: functional, cell-based
CAAX prenyl protease 2 [28] = target: T3, CAAX prenyl protease 2 (Saccharomyces cerevisiae S288c, UniProt Q03530); format: biochemical
T3 sequence (Q03530 whole entry): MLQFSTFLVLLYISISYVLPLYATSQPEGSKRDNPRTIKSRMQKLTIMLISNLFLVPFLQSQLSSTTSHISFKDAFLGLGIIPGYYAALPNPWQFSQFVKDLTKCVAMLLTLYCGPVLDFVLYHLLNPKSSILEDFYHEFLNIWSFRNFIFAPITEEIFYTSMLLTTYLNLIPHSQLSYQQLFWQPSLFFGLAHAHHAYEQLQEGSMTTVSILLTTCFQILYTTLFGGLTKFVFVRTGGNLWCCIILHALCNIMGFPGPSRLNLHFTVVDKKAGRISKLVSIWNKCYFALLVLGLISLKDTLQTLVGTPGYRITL

CAAX prenyl protease 2 [29] = target: CAAX prenyl protease 2 (Homo sapiens, UniProt Q9Y256); test: inhibition of Ras-converting CAAX endoprotease – biochemical, plate reader, dry powder samples, dose response (AID 588848)
CAAX prenyl protease 2 (Homo sapiens, UniProt Q9Y256), sequence (Q9Y256 whole entry): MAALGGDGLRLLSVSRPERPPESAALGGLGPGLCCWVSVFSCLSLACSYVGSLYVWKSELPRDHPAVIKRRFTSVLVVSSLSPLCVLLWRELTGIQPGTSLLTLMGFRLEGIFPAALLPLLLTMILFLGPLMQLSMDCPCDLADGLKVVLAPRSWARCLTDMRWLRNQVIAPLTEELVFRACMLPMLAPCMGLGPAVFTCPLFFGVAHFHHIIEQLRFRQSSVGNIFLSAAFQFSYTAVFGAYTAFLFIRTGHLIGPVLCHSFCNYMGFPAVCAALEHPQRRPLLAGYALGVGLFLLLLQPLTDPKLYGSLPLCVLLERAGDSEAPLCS

CAAX prenyl protease 2 [30] = target: T3, CAAX prenyl protease 2; test: inhibition of Rce1p peptide cleavage – biochemical, plate reader, dry powder retest, dose response (AID 588851)
[31] = target: Voltage-gated inwardly rectifying potassium channel KCNH2 (Homo sapiens, UniProt Q12809); details: Potency;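 note: confirmatory quantitative high-throughput screen measuring inhibition of hERG channel activity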
Voltage-gated inwardly rectifying potassium channel KCNH2, sequence (Q12809 whole entry): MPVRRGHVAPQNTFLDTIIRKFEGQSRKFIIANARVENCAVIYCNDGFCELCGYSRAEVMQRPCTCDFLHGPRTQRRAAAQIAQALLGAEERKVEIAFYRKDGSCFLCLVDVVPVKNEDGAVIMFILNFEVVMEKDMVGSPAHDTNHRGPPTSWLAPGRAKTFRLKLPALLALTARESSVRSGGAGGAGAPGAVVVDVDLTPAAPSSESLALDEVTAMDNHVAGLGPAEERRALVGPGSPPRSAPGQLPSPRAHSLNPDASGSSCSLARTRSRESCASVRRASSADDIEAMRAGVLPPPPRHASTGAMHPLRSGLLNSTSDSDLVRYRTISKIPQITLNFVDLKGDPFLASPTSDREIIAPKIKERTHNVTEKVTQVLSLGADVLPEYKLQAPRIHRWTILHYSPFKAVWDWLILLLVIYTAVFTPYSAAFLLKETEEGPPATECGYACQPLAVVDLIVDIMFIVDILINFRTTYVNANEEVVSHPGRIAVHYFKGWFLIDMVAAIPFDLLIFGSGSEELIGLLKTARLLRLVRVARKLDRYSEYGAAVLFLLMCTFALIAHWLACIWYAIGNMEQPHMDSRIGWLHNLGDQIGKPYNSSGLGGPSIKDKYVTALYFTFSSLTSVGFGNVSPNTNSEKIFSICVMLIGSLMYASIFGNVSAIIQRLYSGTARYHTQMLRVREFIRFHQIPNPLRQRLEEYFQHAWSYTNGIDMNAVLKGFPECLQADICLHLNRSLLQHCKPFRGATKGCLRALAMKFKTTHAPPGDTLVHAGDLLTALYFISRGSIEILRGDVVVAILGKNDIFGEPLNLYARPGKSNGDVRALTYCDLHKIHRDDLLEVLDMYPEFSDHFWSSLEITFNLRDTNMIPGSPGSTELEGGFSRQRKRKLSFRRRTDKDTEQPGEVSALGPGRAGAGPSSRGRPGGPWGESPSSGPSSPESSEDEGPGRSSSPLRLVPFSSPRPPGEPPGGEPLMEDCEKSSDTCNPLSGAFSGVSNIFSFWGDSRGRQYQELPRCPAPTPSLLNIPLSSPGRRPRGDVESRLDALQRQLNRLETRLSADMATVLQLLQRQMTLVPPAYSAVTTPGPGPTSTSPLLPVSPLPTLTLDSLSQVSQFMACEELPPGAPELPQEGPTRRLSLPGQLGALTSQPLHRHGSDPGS

[32] = target: Aryl hydrocarbon receptor (Homo sapiens, UniProt P35869); details: Potency;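 note: confirmatory quantitative high-throughput screen measuring activation of the AhR signaling pathway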
[33] = target: Dual specificity protein kinase CLK1 (Homo sapiens, UniProt P49759); test: inhibition of human CLK1 activity – biochemical, cherry-picked samples, selectivity assay for Dyrk1A inhibitor project, dose response (AID 588811)
Dual specificity protein kinase CLK1, sequence (P49759 whole entry): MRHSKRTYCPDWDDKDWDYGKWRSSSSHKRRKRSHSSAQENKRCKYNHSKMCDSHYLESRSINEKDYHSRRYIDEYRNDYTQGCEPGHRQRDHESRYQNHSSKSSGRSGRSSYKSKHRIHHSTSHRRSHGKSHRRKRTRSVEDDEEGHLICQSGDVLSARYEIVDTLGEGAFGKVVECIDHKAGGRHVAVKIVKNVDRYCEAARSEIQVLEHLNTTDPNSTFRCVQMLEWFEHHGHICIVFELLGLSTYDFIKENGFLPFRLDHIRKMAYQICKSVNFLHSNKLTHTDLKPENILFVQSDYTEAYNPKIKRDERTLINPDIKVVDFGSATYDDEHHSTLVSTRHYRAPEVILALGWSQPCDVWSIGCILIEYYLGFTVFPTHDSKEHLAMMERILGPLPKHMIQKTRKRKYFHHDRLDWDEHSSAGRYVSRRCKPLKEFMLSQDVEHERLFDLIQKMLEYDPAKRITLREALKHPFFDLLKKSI

[34] = target: T4, Beta-2 adrenergic receptor (Homo sapiens, UniProt P07550); test: Dose response for HTS for Beta-2AR agonists via FAP method from Powderset1.; format: functional
T4 sequence (P07550 whole entry): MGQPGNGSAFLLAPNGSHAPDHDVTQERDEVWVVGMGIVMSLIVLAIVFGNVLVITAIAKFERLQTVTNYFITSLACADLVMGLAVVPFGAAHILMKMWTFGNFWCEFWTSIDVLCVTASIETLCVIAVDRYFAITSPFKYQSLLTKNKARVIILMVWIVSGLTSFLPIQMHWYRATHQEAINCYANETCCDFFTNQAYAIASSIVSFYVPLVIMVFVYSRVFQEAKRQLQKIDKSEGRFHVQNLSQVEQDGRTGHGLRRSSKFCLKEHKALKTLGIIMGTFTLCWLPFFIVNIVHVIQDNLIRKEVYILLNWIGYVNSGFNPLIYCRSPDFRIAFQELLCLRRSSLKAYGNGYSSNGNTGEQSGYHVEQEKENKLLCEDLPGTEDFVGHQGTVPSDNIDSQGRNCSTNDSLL

[35] = target: T4, Beta-2 adrenergic receptor; test: ADRB2 activation measured by internalization – cell-based, FAP fluorogen, flow cytometry, cherry pick 1, dose response (AID 588763); format: functional
[36] = Luminescence Cell-Based Dose Response HTS to Identify Inhibitors of 5'UTR Stem-Loop Driven Prion Protein mRNA Translation in H4 Neuroglioblastoma Cells. [Related pubchem assays: 1827 (Project Summary), 1813 (Primary HTS)]; format: functional
[37] = Trypanosoma cruzi growth suppression in host cells – NIH3T3 host cells, beta-gal luminescence, confirmation (AID 2044); format: functional, cell-based;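 note: intracellular parasites grown in NIH/3T3 mouse fibroblasts as host cells; luminescent beta-galactosidase reporter signal from transgenic T. cruzi replicating inside host cells; inhibitors lower the luminescence signal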
[38] = NIH3T3 cell viability loss – ATP luminescence, mouse fibroblasts, counter-screen, dose response (AID 2010); format: functional, cell-based;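 note: cells exposed to compound for about 90 hours before reading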
DNA topoisomerase = DNA topoisomerase (Yersinia pestis, UniProt A0A2S9PM60); test: Yersinia topoisomerase I cleavage product accumulation – biochemical, cherry-pick, dose response (AID 588525)
DNA topoisomerase, sequence (A0A2S9PM60 whole entry): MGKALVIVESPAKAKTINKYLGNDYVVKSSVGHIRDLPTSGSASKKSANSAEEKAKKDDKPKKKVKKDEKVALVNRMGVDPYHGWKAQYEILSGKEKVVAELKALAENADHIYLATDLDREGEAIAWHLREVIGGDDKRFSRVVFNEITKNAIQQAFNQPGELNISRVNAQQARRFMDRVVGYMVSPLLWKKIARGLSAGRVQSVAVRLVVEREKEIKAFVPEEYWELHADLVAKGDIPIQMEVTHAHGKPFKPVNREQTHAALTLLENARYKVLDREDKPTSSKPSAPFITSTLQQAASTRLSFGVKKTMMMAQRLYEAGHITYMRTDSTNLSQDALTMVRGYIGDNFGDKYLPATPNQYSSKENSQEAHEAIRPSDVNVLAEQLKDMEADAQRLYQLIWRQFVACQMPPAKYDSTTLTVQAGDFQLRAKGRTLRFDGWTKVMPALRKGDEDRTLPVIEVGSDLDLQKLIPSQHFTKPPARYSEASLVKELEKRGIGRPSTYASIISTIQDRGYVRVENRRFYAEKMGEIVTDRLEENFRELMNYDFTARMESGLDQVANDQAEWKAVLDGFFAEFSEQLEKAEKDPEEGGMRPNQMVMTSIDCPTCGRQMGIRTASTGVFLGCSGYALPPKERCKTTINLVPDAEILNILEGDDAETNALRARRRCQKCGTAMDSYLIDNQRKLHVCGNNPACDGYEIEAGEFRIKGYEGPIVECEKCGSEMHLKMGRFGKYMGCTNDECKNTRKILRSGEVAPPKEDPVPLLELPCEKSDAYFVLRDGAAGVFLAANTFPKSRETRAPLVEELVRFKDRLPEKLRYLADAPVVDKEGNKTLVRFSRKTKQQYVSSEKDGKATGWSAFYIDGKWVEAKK

[39] = THP-1 cell cytotoxicity, cytotoxicity control, set 6 (AID 602433); format: functional; details: Mycobacterium tuberculosis

O=S(=O)(O)c1cc(O)c2c(O)c(N=Nc3cc(Cl)ccc3O)c(S(=O)(=O)O)cc2c1
EC50 [1]: > 150 µM (inactive) | EC50 [2]: 13.1 µM (active) | EC50 [3]: 14.8 µM (active) | EC50 [4]: > 38 µM (not active) | IC50 (Large T antigen): 13.4 µM (active) | IC50 [5]: > 20 µM (inactive) | EC50 [6]: 16.3 µM (inactive)

Cc1ccc2cccc(NS(=O)(=O)c3ccccc3)c2n1
EC50 [7]: 5.1 µM (active) | EC50 (BJ [8]): 37.9 µM (active) | EC50 (Beta-galactosidase): > 40 µM (inactive) | EC50 (Streptokinase A): > 150 µM (not active) | EC50 (BJ [9]): 17.8 µM (active) | IC50 [10]: 0.589 µM (active) | IC50 [11]: 2.35 µM (active) | EC50 (BJ [12]): > 150 µM (not active) | EC50 [13]: 21.6 µM (active) | EC50 (Streptococcus): > 150 µM (not active) | IC50 [14]: > 80 µM (inactive) | IC50 (HEK293 [15]): > 80 µM (inactive) | IC50 (Jurkat): 1.21 µM (active) | EC50 (BJ [16]): 5.74 µM (active) | IC50 (HEK293 [17]): > 79 µM (inactive) | AC50 (Paired box protein Pax-8): 5.74 µM (active) | AC50 [18]: 49.5 µM (active) | AC50 [19]: 8.75 µM (active) | AC50 [20]: 17.3 µM (active) | AC50 [21]: 20.5 µM (active) | AC50 [22]: 14 µM (active) | AC50 [23]: 21.1 µM (active) | AC50 [24]: 10.7 µM (active) | AC50 [25]: 5.65 µM (active) | AC50 [26]: 44 µM (active) | AC50 [27]: 15.6 µM (active)

CC(C)c1c(C(=O)N/N=C/c2c[nH]c3ccccc23)nnn1-c1nonc1N
AC50 (CAAX prenyl protease 2 [28]): 0.298 µM (active) | AC50 (CAAX prenyl protease 2 [29]): 29.3 µM (active) | AC50 (CAAX prenyl protease 2 [30]): 3.14 µM (active)

COP(=S)(OC)Oc1ccc(SC)c(C)c1 [FENTHION]
AC50 [31]: 22.4 µM (inconclusive) | AC50 [32]: 50.1 µM (inconclusive)

CN(C)c1ccc(-c2nccc(NCc3cccs3)n2)cc1
AC50 [33]: 0.265 µM (active)

CSc1ccc(CN2CCC(Oc3ccc(C(=O)N4CCCC4)cc3)CC2)cc1
EC50 [34]: 0.348 µM (active) | EC50 [35]: 1.39 µM (active)

O=C(CSc1nnc(COc2ccc(Cl)cc2)o1)N1c2ccccc2CCc2ccccc21
EC50 [2]: 23.5 µM (active) | EC50 [36]: 21.5 µM (active) | EC50 [3]: 15.2 µM (active) | EC50 [37]: 0.625 µM (active) | EC50 [38]: < 6 µM (inconclusive) | AC50 (DNA topoisomerase): 10.2 µM (active)

O=C(CSc1nc2ccccc2c(=O)[nH]1)NC1CCOCC1
CC50 [39]: > 100 µM (inconclusive)

— ChEMBL document CHEMBL1201862, “PubChem BioAssay data set” (2004)
